Data from PMC12524621 (2025).

Legend:
Test in all cases: fluorescence light-up (580/640 nm)
[1] = system: CleavedCV30S_8 (m + f) (DNA, aptamer) AACGACCACCGGTGCGCCGTATTTTTT/AAAAAACAGGTAACTAGCGTCGTCGTT; details: 62.5 mM K+, 50 mM Na+, Mg2+ (concentration not stated); 25 mM Tris-HCl pH 7; second best cleavage site
[2] = system: CV30S_8 short-armed binary sensor + analyte (DNA, aptamer) AACTAGCTAATCCCACTTTAACGACCACCGGTGCGCCGTATTTTTT/AAAAAACAGGTAACTAGCGTCGTCGTTTTTCTGGGCATATCCAA/TCGGGCCTTGCGCGATTGGATATGCCCAGGTGGGATTAGCTAGTTGGTGGGGTAATGG; details: 62.5 mM K+, 50 mM Na+, Mg2+ (concentration not stated); 25 mM Tris-HCl pH 7, incubated at 37 °C; analyte 1 µM; S/B 2.2
[3] = system: G4 parallel short-armed binary sensor + analyte (DNA, G4) AACTAGCTAATCCCACTTTTTTGGGTAGGG/GGGTTGGGTTTTTTCTGGGCATATCCAA/TCGGGCCTTGCGCGATTGGATATGCCCAGGTGGGATTAGCTAGTTGGTGGGGTAATGG; details: 62.5 mM K+, 50 mM Na+, Mg2+ (concentration not stated); 25 mM Tris-HCl pH 7, incubated at 37 °C; analyte 1 µM; S/B 3
[4] = system: CleavedCV30S_1 (m + f) (DNA, aptamer) AACGACCACCGGTGTTTTTT/AAAAAACGCCGTACAGGTAACTAGCGTCGTCGTT; details: 62.5 mM K+, 50 mM Na+, Mg2+ (concentration not stated); 25 mM Tris-HCl pH 7; fourth best cleavage site
[5] = system: G4 parallel long-armed binary sensor + analyte (DNA, G4) TTACCCCACCAACTAGCTAATCCCACTTTTTTGGGTAGGG/GGGTTGGGTTTTTTCTGGGCATATCCAATCGCGCAA/TCGGGCCTTGCGCGATTGGATATGCCCAGGTGGGATTAGCTAGTTGGTGGGGTAATGG; details: 62.5 mM K+, 50 mM Na+, Mg2+ (concentration not stated); 25 mM Tris-HCl pH 7, incubated at 55 °C; analyte 1 µM; S/B 3.3
[6] = system: G4 antiparallel long-armed binary sensor + analyte (DNA, G4) TTACCCCACCAACTAGCTAATCCCACTTTTTTAGGGTTAGG/GTTAGGGTTAGGGTTTTTTCTGGGCATATCCAATCGCGCAA/TCGGGCCTTGCGCGATTGGATATGCCCAGGTGGGATTAGCTAGTTGGTGGGGTAATGG; details: 37.5 mM K+, 50 mM Na+, Mg2+ (concentration not stated); 25 mM Tris-HCl pH 7, incubated at 55 °C; analyte 1 µM; S/B 3.3
[7] = system: CV30S_8 long-armed binary sensor + analyte (DNA, aptamer) TTACCCCACCAACTAGCTAATCCCACTTTAACGACCACCGGTGCGCCGTATTTTTT/AAAAAACAGGTAACTAGCGTCGTCGTTTTTCTGGGCATATCCAATCGCGCAA/TCGGGCCTTGCGCGATTGGATATGCCCAGGTGGGATTAGCTAGTTGGTGGGGTAATGG; details: 62.5 mM K+, 50 mM Na+, Mg2+ (concentration not stated); 25 mM Tris-HCl pH 7, incubated at 55 °C; analyte 1 µM; S/B 2.1
[8] = system: G4 parallel (Aptamer_G4_parallel) (DNA, G4) GGGTAGGGCGGGTTGGG; details: 62.5 mM K+, 50 mM Na+, Mg2+ (concentration not stated); 25 mM Tris-HCl pH 7, ~22 °C, 1.7 µM each; S/B 1.9, poorest of three
[9] = system: CleavedCV30S_2 (m + f) (DNA, aptamer) AACGACCACCGGTGCGCCGTTTTTTT/AAAAAAACAGGTAACTAGCGTCGTCGTT; details: 62.5 mM K+, 50 mM Na+, Mg2+ (concentration not stated); 25 mM Tris-HCl pH 7; best of eight cleavage sites
[10] = system: G4 antiparallel short-armed binary sensor + analyte (DNA, G4) AACTAGCTAATCCCACTTTTTTAGGGTTAGG/GTTAGGGTTAGGGTTTTTTCTGGGCATATCCAA/TCGGGCCTTGCGCGATTGGATATGCCCAGGTGGGATTAGCTAGTTGGTGGGGTAATGG; details: 37.5 mM K+, 50 mM Na+, Mg2+ (concentration not stated); 25 mM Tris-HCl pH 7, incubated at 37 °C; analyte 1 µM; S/B 3.2
[11] = system: G4 antiparallel (Aptamer_G4_antiparallel) (DNA, G4) AGGGTTAGGGTTAGGGTTAGGG; details: 37.5 mM K+, 50 mM Na+, Mg2+ (concentration not stated); 25 mM Tris-HCl pH 7, ~22 °C, 1.7 µM each; S/B 8.7
[12] = system: CV30S (Aptamer_CV30S) (DNA, aptamer) AACGACCACCGGTGCGCCGTACAGGTAACTAGCGTCGTCGTT; details: 62.5 mM K+, 50 mM Na+, Mg2+ (concentration not stated); 25 mM Tris-HCl pH 7, ~22 °C, 1.7 µM each; S/B 7.8
[13] = system: CleavedCV30S_3 (m + f) (DNA, aptamer) AACGACCACCGGTGCGCCGTACAGGTTTTTTT/AAAAAAAACTAGCGTCGTCGTT; details: 62.5 mM K+, 50 mM Na+, Mg2+ (concentration not stated); 25 mM Tris-HCl pH 7; third best cleavage site

binding [1]: yes
binding [2]: yes
binding [3]: yes
binding [4]: yes
binding [5]: yes
binding [6]: yes
binding [7]: yes
binding [8]: yes
binding [9]: yes
binding [10]: yes
binding [11]: yes
binding [12]: yes
binding [13]: yes
SMILES: CN(C)c1ccc(C(=C2C=CC(=[N+](C)C)C=C2)c2ccc(N(C)C)cc2)cc1
